Experimental data published in ChEMBL document CHEMBL1134899, “Non-steroidal pregnancy-terminating agents: design, synthesis and structure-activity relationships of 2-aryl-1,2,4-triazolo[1,5-a]pyridine” (2002).
The source made the active and inactive calls. The calls are words filed in the database; no cut-off is given here.

Columns and labels:
Rattus norvegicus [1] = species on record: Rattus norvegicus; experiment: Compound was tested for in vitro activity of luteolysis on corpora lutea from pseudopregnant rats; inactive; type: functional
Rattus norvegicus [2] = species on record: Rattus norvegicus; experiment: Compound was tested for in vitro activity of luteolysis on corpora lutea from pseudopregnant rats; type: functional; details: read-out: ED50 (the source's name)

Cc1cccc2nc(-c3ccccc3)nn12
ED50 (Rattus norvegicus [1]): inactive

Cc1cccc2nc(-c3ccc4c(c3)OCO4)nn12
EC50 (Rattus norvegicus [2]): 65 µM
